Like-named read-outs stand apart in the source and are kept apart here.
Experiments:
CYP1A2 = molecular target: T1, CYP1A2 (Homo sapiens, UniProt P05177); test: CYP1A2 inhibition in human liver microsomes; type: in vitro ADME; conditions: ultrapooled human liver microsomes 0.2 mg/mL, 50 μM phenacetin, β-amanitin 0.1–100 μM, pH 7.4, 37 °C, 15 min, LC-MS/MS, n = 3, read-out: IC50, CYP1A2 phenacetin O-deethylase
T1 construct: from tissue; host or cells: ultrapooled human liver microsomes
T1 sequence (P05177 1-516): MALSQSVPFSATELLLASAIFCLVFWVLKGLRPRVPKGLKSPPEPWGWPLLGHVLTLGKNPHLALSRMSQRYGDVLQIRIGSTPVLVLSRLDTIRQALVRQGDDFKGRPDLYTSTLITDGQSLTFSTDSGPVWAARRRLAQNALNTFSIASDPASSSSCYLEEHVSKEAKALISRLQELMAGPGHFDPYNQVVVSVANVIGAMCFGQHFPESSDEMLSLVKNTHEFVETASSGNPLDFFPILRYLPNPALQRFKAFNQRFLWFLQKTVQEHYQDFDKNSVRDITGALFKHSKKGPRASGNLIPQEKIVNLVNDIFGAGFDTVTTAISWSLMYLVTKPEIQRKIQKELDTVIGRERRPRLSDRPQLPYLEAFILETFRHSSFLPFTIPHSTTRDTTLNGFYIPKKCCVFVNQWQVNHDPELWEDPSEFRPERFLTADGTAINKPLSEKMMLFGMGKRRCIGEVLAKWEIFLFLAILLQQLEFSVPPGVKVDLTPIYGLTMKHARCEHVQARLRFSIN
Protocol: (§1) β-amanitin inhibition (IC50 values) of CYP1A2, CYP2A6, CYP2B6, CYP2C8, CYP2C9, CYP2C19, CYP2D6, and CYP3A4 enzyme activities in HLMs were evaluated using LC-MS/MS and CYP substrates as previously described. Each incubation mixture was made up to a volume of 100 μL including HLMs (0.2 mg/mL), 50 mM potassium phosphate buffer (pH 7.4), 1.0 mM NADPH, 10 mM magnesium chloride, various concentrations of β-amanitin (0.1–100 μM), a cocktail of seven CYP probe substrates (50 μM phenacetin for CYP1A2, 2.5 μM coumarin for CYP2A6, 2 μM amodiaquine for CYP2C8, 10 μM diclofenac for CYP2C9, 100 μM [S]-mephenytoin for CYP2C19, 5 μM bufuralol for CYP2D6, and 2.5 μM midazolam for CYP3A4 in acetonitrile), or 50 μM bupropion for CYP2B6. The reactions were initiated with NADPH followed by incubation in a shaking water bath at 37 °C for 15 min with or without 30 min preincubation with NADPH. Reactions were stopped with 50 μL of ice-cold methanol containing ^13C2, ^15N-acetaminophen and d9-1′-hydroxybufuralol (ISs). Incubation mixtures were centrifuged at 13,000× g for 8 min at 4 °C. An aliquot (5 μL) of the supernatant from the reaction mixture was analyzed by the previous LC-MS/MS method.

CYP2D6 = molecular target: T2, CYP2D6 (Homo sapiens, UniProt P10635); test: CYP2D6 inhibition in human liver microsomes; type: in vitro ADME; conditions: ultrapooled human liver microsomes 0.2 mg/mL, 5 μM bufuralol, β-amanitin 0.1–100 μM, pH 7.4, 37 °C, 15 min, LC-MS/MS, n = 3, read-out: IC50, CYP2D6 bufuralol 1′-hydroxylase
T2 construct: from tissue; host or cells: ultrapooled human liver microsomes
T2 sequence (P10635 whole entry): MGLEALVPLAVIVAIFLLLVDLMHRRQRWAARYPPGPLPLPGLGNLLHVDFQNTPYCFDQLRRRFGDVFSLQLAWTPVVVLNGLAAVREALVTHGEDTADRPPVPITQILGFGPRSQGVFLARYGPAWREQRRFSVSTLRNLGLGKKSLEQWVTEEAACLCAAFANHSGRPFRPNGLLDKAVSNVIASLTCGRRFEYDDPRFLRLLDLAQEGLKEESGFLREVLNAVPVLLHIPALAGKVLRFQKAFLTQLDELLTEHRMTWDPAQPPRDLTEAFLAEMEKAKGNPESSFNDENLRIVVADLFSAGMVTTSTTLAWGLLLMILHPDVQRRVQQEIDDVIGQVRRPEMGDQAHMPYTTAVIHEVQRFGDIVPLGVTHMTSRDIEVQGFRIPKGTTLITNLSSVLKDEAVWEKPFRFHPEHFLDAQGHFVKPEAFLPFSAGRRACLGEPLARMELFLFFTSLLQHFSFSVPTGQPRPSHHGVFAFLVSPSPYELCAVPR
Protocol: as §1

[1] = Toxicokinetics after oral administration in mice; type: in vivo; conditions: male ICR mice; for bioavailability / Tmax / Cmax / half-life / AUC(0-inf) / AUC(0-t): mouse; for bioavailability / Tmax / Cmax / AUC(0-inf) / AUC(0-t): plasma; for bioavailability: (dose normalized AUCPO/dose normalized AUCIV) × 100, mean ± SD, read-out: F (oral bioavailability); for Tmax: median with range in parentheses; for Cmax: fasted; for Cmax / AUC(0-inf) / AUC(0-t): LC-HRMS; for Cmax / half-life / AUC(0-inf) / AUC(0-t): mean ± SD; for half-life: plasma elimination half-life; for AUC(0-inf) / AUC(0-t): non-compartmental
Protocol: The Institutional Animal Care and Use Committee of the Catholic University of Korea (approval number, CUK-IACUC-2021-004; approval date, 21 March 2021) approved the study protocol. Male ICR mice (8 weeks of age, 27.4 ± 2.3 g) were purchased from Orient Bio Inc. (Seongnam, Korea). Mice were kept in plastic cages with unlimited access to a standard mouse diet (Orient Bio) and water before the experiments. For oral administration, mice were fasted for at least 12 h but allowed free access to water.
β-amanitin was dissolved in water and administered to mice by gavage at doses of 2 (n = 7), 5 (n = 9), and 10 (n = 7) mg/kg. Blood samples (approximately 15 μL) were collected from the retro-orbital plexus under light anesthesia with isoflurane at 0.033, 0.083, 0.166, 0.25, 0.5, 0.75, 1, 1.5, 2, 4, 6, and 8 h after drug administration. Plasma samples (5 μL each) were harvested by centrifugation at 13,000× g for 3 min at 4 °C and stored at −80 °C until analysis.
Concentrations of β-amanitin in biological samples were evaluated following our previous methodology. The standard calibration curves for β-amanitin in mouse plasma ranged from 0.5 to 500 ng/mL and were linear, with a correlation coefficient of 0.9952. The inter- and intra-day accuracy and precision fell within the acceptance criteria (3.1–14.6% of coefficients of variation (CVs) and 92.5–115.0% of accuracy). The extraction recovery and matrix effect of this analytical method were 82.8–88.9% and 93.0–98.6%.
An aliquot (5 μL) of plasma sample was mixed with 15 μL of 4′-hydroxydiclofenac (internal standard (IS), 5 ng/mL) in methanol and vortexed for 2 min. The mixture was centrifuged at 13,000× g at 4 °C for 5 min, and the supernatant was then transferred to an autosampler vial. An aliquot (5 μL) was injected into the LC-HRMS system for analysis.
The toxicokinetic parameters of β-amanitin were analyzed by non-compartmental analyses (WinNonlin, Pharsight; Mountain View, CA, USA) (Table 1). Data were expressed as mean ± standard deviations (SD). Comparisons of data between groups were performed using one-way ANOVA or Student t-test. Values of p < 0.05 were considered statistically significant.

[2] = with 30 min NADPH preincubation
[3] = oral 2, 5 and 10 mg/kg, range of the dose-group means

CC[C@H](C)[C@@H]1NC(=O)CNC(=O)[C@@H]2Cc3c([nH]c4cc(O)ccc34)[S@+]([O-])C[C@H](NC(=O)CNC1=O)C(=O)N[C@@H](CC(=O)O)C(=O)N1C[C@H](O)C[C@H]1C(=O)N[C@@H]([C@@H](C)[C@@H](O)CO)C(=O)N2 [β-amanitin]
IC50 (CYP1A2; [2]): > 100 µM
IC50 (CYP1A2; without NADPH preincubation): > 100 µM
IC50 (CYP2D6; [2]): 71.6 µM
IC50 (CYP2D6; without NADPH preincubation): 76.2 µM
Tmax, range over the oral doses ([1]; oral 2, 5 and 10 mg/kg, range of individual values): 10~120 min
Absolute (oral) bioavailability, range over the oral doses [1, 3]: 7.3–9.4%
t1/2, range over the oral doses [1, 3]: 105.0~132.0 min
bioavailability ([1]; oral gavage 2 mg/kg, n = 7): 9.4 ± 4.9%
Tmax ([1]; oral gavage 2 mg/kg, n = 7): 1 h
bioavailability ([1]; oral gavage 5 mg/kg, n = 9): 8.1 ± 4.3%
Tmax ([1]; oral gavage 5 mg/kg, n = 9): 1.5 h
bioavailability ([1]; oral gavage 10 mg/kg, n = 7): 7.3 ± 3.1%
Tmax ([1]; oral gavage 10 mg/kg, n = 7): 1 h
Cmax ([1]; oral gavage 2 mg/kg in water, n = 7): 67.1 ± 18.6 ng/mL
Cmax ([1]; oral gavage 5 mg/kg in water, n = 9): 140 ± 116 ng/mL
Cmax ([1]; oral gavage 10 mg/kg in water, n = 7): 360 ± 385 ng/mL
half-life ([1]; oral gavage 2 mg/kg, n = 7): 105 ± 94.1 min
AUC(0-inf) ([1]; oral gavage 2 mg/kg, n = 7): 191 ng·h/mL
AUC(0-t) ([1]; oral gavage 2 mg/kg, n = 7): 181 ng·h/mL
half-life ([1]; oral gavage 5 mg/kg, n = 9): 132 ± 50.3 min
AUC(0-inf) ([1]; oral gavage 5 mg/kg, n = 9): 438 ng·h/mL
AUC(0-t) ([1]; oral gavage 5 mg/kg, n = 9): 391 ng·h/mL
half-life ([1]; oral gavage 10 mg/kg, n = 7): 130 ± 78.5 min
AUC(0-inf) ([1]; oral gavage 10 mg/kg, n = 7): 810 ng·h/mL
AUC(0-t) ([1]; oral gavage 10 mg/kg, n = 7): 698 ng·h/mL
